Experimental data from patent US6458797B1, “Methods for remodeling neuronal and cardiovascular pathways” (Queen's University of Kingston, priority 1998, dated 2002).

What was measured:
[1] = system: spontaneously hypertensive rats (SHR); assay: Left ventricle weight of SHR after 1 or 2 weeks of drug treatment; assay type: in vivo, rat; settings: for Left Ventricle Weight (g)/Body Weight (kg) Ratio: control 2.46 ± 0.08
Method: Following this treatment, structurally-based resistance to blood flow in the perfused penile vascular bed and hindlimb vascular bed models were measured using the methods detailed above. […] The animal hearts were excised and weighed.

[2] = system: spontaneously hypertensive rats (SHR); assay: Structurally-based vascular resistance in perfused vascular bed of SHR after 1 or 2 weeks of drug treatment; assay type: in vivo, rat; settings: for Slope Flow Pressure: control 7.13 ± 0.63; for Maximum Constriction With Cocktail “Yield”: control 381 ± 21
Method: Penile perfusion preparations were made using the procedure established by Banting, J. D., et al., “Isolation and Perfusion of the Pudendal Vasculature in Male Rats. J Urol., 2: 587-590 (1995). A heated chamber served to maintain the ambient temperature and the entire preparation at 37-38° C. The perfusate was held in a reservoir and passed through a heating and a bubble trapping/mixing chamber connected to a single peristaltic pump (Minipuls 2 Pump, Gilson, Inc., 3000 W. Beltline Highway, Middleton, Wis. USA 53562). An injection port was located distal to the pump for the introduction of pharmacological agents to minimize dead volume. Drugs were administered via a Harvard Apparatus, Inc. infusion pump (Harvard Apparatus, Inc., 84 October Hill Road, Holliston, Mass. 01746). The perfusate was a Tyrode-dextran solution consisting of a mixture of 20 mg of KCI, 32.3mg of CaCl2.H2O, 5.1 mg of MgCl2.6H2O, 6.2 mg of NaH2PO4.2H2O, 155 mg of NaHCO3, 100 mg of glucose, and 800 mg of NaCl in each 100 mL of fluid. The solution was maintained at pH 7.4, and a temperature of 37-39° C., and oxygenated with 95% O2 and 5% CO2. The rats were anaesthetized (sodium pentobarbital 60 mg/kg body weight i.p.) and heparinized (1000 IU/kg, i.v.). The bilateral isolation of penile vasculature was achieved by ligating all of the branching arteries except for the pudendal; then the abdominal aorta was cannulated proximal to the iliac bifurcation with a single lumen catheter. The catheter was connected to the perfusion apparatus via a pressure transducer for arterial pressure recording. After sectioning the vena cava and spinal cord to remove venous resistance and to eliminate neural influences, a flow of perfusate (1 mL/min per kg body weight) through the abdominal cannula was initiated. The perfusion pressure was continuously recorded on a data acquisition system (MacLab, AD Instruments, Houston, Tex.). The perfusate was infused for twenty minutes to flush the penile vasculature of blood and obtain a stable pressure before the beginning of any experiment. Following this, sodium nitroprusside (20 μg/mL) was infused to induce maximum vasodilation. The flow rate-perfusion/pressure relationship was determined by measuring the pressure at minimum vascular resistance at flow rates of 0.5, 1.0, 2.0, 4.0 mL/min per kg of body weight. A cumulative α1-adrenoreceptor concentration-response curve to methoxamine (2.5, 5, 10, 25, 50 μg/mL was then generated. Each concentration of methoxamine was infused for a duration of 10 minutes, at which time a plateau was reached. Subsequently, a continuous injection of a cocktail containing a supramaximal concentration of vasoconstrictors (vasopressin, 20.5 μg/mL, angiotensin-II, 200 ng/mL; methoxamine, 64 μg/mL; Sigma, St. Louis, Mo., 63178) was given to ensure that maximum constrictor response that was not dependent upon the activation of a single receptor type was achieved. A second injection of the constrictor cocktail was administered to ensure the tissue “yield” was maximum constriction. […] At the end of the concentration-response relationship, the aorta was cut distal to the catheter, and a baseline flow-pressure curve was recorded again. This was done to ensure that pressure fell to zero and to account for any false pressure readings that may have resulted due to movement of the catheter during the experiment.
The hindlimb perfusion preparation was adopted from a technique originally designed by Folkow et al., Acta Physiol Scand., 80: 93-106 (1973), as modified by Adams et al., Hypertension, 14: 191-202 (1989). The perfusion experiment was performed as described above. Drugs were administered into the mixing chamber via a Harvard Apparatus infusion pump. The rats were anaesthetized (Inactin, 100 mg/kg of body weight, i.p.) and heparinized (1000 IU/kg of body weight, i.v.).

α1-adrenoreceptor [3] = assay: Hindlimb vascular bed perfusion, cumulative α1-adrenoreceptor concentration-response curve to methoxamine; design: species or system rat; settings: mean ± SD
Method: Male spontaneously hypertensive (SH) rats weighing between 246-313 g, and normotensive Sprague-Dawley (SD) rats weighing between 246-440 g were obtained from Charles River Laboratories (Montreal, Quebec, Canada). The animals were maintained in individual cages with a 12 hour light/12 hour dark cycle, and a room temperature of 22-24° C. They were provided with standard rodent chow and tap water ad libitum and were acclimated to the room for at least two days before the experiments. All procedures were carried out in accordance with the guidelines set out by the Canadian Council on Animal Care. The hindlimb perfusion preparation was adopted from a technique originally designed by Folkow et al., Acta Physiol Scand., 80: 93-106 (1973), as modified by Adams et al., Hypertension, 14: 191-202 (1989). The perfusion experiment was performed as described above. Drugs were administered into the mixing chamber via a Harvard Apparatus infusion pump. […] Following a midline abdominal incision, the abdominal aorta was cannulated proximal to the iliac bifurcation with a double lumen catheter (Storz, St Louis, Mo., USA), and the catheter was extended down the right common iliac artery. One lumen of the catheter was connected to the perfusion apparatus, while the other was connected to a pressure transducer for arterial pressure recording. […] A cumulative α1-adrenoreceptor concentration-response curve to methoxamine (0.5, 1, 2, 4, 8, 16, 32, 64 μg/mL) was then generated. […] Subsequently, a bolus injection of a cocktail containing a supramaximal concentration of vasoconstrictors was given as above. At the end of the concentration-response relationship, the iliac artery was cut distal to the catheter, and the flow pressure curve was monitored again. Flow rates for the hindlimb perfusion experiments were determined based on expected flow rates of exercising skeletal muscle at maximum dilation. […] All values in the figures and tables were expressed as mean ± standard deviation. Results comparing penile and hindlimb vasculature were analyzed using the Student's t-test. […]

α1-adrenoreceptor [4] = assay: Penile vascular bed perfusion, cumulative α1-adrenoreceptor concentration-response curve to methoxamine; design: species or system rat; settings: mean ± SD; for Slope Methoxamine: steepest slope of concentration-response curve
Method: Male spontaneously hypertensive (SH) rats weighing between 246-313 g, and normotensive Sprague-Dawley (SD) rats weighing between 246-440 g were obtained from Charles River Laboratories (Montreal, Quebec, Canada). The animals were maintained in individual cages with a 12 hour light/12 hour dark cycle, and a room temperature of 22-24° C. They were provided with standard rodent chow and tap water ad libitum and were acclimated to the room for at least two days before the experiments. All procedures were carried out in accordance with the guidelines set out by the Canadian Council on Animal Care.
Penile perfusion preparations were made using the procedure established by Banting, J. D., et al., “Isolation and Perfusion of the Pudendal Vasculature in Male Rats. J Urol., 2: 587-590 (1995). A heated chamber served to maintain the ambient temperature and the entire preparation at 37-38° C. The perfusate was held in a reservoir and passed through a heating and a bubble trapping/mixing chamber connected to a single peristaltic pump (Minipuls 2 Pump, Gilson, Inc., 3000 W. Beltline Highway, Middleton, Wis. USA 53562). An injection port was located distal to the pump for the introduction of pharmacological agents to minimize dead volume. Drugs were administered via a Harvard Apparatus, Inc. infusion pump (Harvard Apparatus, Inc., 84 October Hill Road, Holliston, Mass. 01746). The perfusate was a Tyrode-dextran solution consisting of a mixture of 20 mg of KCI, 32.3mg of CaCl2.H2O, 5.1 mg of MgCl2.6H2O, 6.2 mg of NaH2PO4.2H2O, 155 mg of NaHCO3, 100 mg of glucose, and 800 mg of NaCl in each 100 mL of fluid. The solution was maintained at pH 7.4, and a temperature of 37-39° C., and oxygenated with 95% O2 and 5% CO2. The rats were anaesthetized (sodium pentobarbital 60 mg/kg body weight i.p.) and heparinized (1000 IU/kg, i.v.). The bilateral isolation of penile vasculature was achieved by ligating all of the branching arteries except for the pudendal; then the abdominal aorta was cannulated proximal to the iliac bifurcation with a single lumen catheter. The catheter was connected to the perfusion apparatus via a pressure transducer for arterial pressure recording. […] The perfusion pressure was continuously recorded on a data acquisition system (MacLab, AD Instruments, Houston, Tex.). […] The flow rate-perfusion/pressure relationship was determined by measuring the pressure at minimum vascular resistance at flow rates of 0.5, 1.0, 2.0, 4.0 mL/min per kg of body weight. […] At the end of the concentration-response relationship, the aorta was cut distal to the catheter, and a baseline flow-pressure curve was recorded again. […]

[5] = SHR, enalapril 30 mg/kg per day, 2-week period of treatment, versus control
[6] = SHR-E1: enalapril 30 mg/kg per day, 1 week, n = 5
[7] = SHR-E2: enalapril 30 mg/kg per day, 2 weeks, n = 7
[8] = SHR-H: hydralazine 45 mg/kg per day, n = 7

## CCOC(=O)[C@H](CCc1ccccc1)N[C@@H](C)C(=O)N1CCC[C@H]1C(=O)O [enalapril]
[1]; [5]
  decrease of left ventricular mass: 13.6%±3.2%
[1]; [6]
  Left Ventricle Weight (g)/Body Weight (kg) Ratio: 2.17 ± 0.05 g/kg
[1]; [7]
  Left Ventricle Weight (g)/Body Weight (kg) Ratio: 2.13 ± 0.08 g/kg
[2]; [5]
  decrease of “yield” value: 12.1%±6.0%
[2]; [6]
  Slope Flow Pressure: 6.10 ± 1.5
  Maximum Constriction With Cocktail “Yield”: 358 ± 20 mm Hg
[2]; [7]
  Slope Flow Pressure: 6.45 ± 1.31
[2]; SHR-E2: enalapril 30 mg/kg per day, 2 weeks, n = 7, vasopressin, angiotensin-II, methoxamine cocktail
  Maximum Constriction With Cocktail “Yield”: 335 ± 23 mm Hg

## NNc1nncc2ccccc12 [hydralazine]
[1]; SHR, hydralazine 45 mg/kg per day, versus control, no significant effect
  decrease of left ventricular weight: 3.7%±5.0%
[1]; [8]
  Left Ventricle Weight (g)/Body Weight (kg) Ratio: 2.37 ± 0.12 g/kg
[2]; SHR, hydralazine 45 mg/kg per day, versus control
  decrease of “yield” point: 7.3%±2.9%
[2]; [8]
  Slope Flow Pressure: 6.63 ± 0.86
  Maximum Constriction With Cocktail “Yield”: 353 ± 11 mm Hg

## COc1ccc(OC)c(C(O)C(C)N)c1 (centres unmarked) [methoxamine]
α1-adrenoreceptor [3]; SD, methoxamine 64 μg/mL
  Maximum Constriction With Methoxamine: 191 ± 55 mm Hg
α1-adrenoreceptor [3]; SD, steepest slope of concentration-response curve
  Slope Methoxamine: 3.0±0.99
α1-adrenoreceptor [3]; SHR, perfusion pressure at supramaximal methoxamine 64 μg/mL
  Maximum Constriction With Methoxamine: 253±25 mm Hg
α1-adrenoreceptor [4]; SD (normotensive Sprague-Dawley), methoxamine 50 μg/mL
  Maximum Constriction With Methoxamine: 171 ± 36 mm Hg
α1-adrenoreceptor [4]; SD
  Slope Methoxamine: 2.03±0.68
α1-adrenoreceptor [4]; SHR, perfusion pressure at supramaximal methoxamine 50 μg/mL
  Maximum Constriction With Methoxamine: 172±32 mm Hg
α1-adrenoreceptor [4]; SHR
  Slope Methoxamine: 1.64±0.21
